Test results reported in patent US20250109120A1, “INDOLINE DERIVATIVES FOR TREATMENT AND/OR PREVENTION OF TUMOR OR CELL PROLIFERATIVE AND FIBROSIS DISEASES” (NATIONAL TAIWAN UNIVERSITY, priority 2023, published 2025).

How the values were obtained:
[1] = system: DU145 cells; assay: TGF-β1-induced morphology change and wound migration; format: cell-based, human; conditions: TGF-β1 10 ng/mL
Experimental: Images of the morphology of cells were taken at ×100 magnification. […] The cells were incubated with or without TGF-β1 (10 ng/mL) and compound k (2.5 and 10 μM), allowed to migrate into the wound area for 48 h and photographed. Cell migration into the wound was quantified using ImageJ software; the white solid line indicates time zero. The quantitative assessment of the mean number of cells in the scratch area is expressed as the mean t SEM from at least three independent experiments (***p<0.001 vs. control group; ##p<0.01 and ###p<0.001 vs. TGF-β1 treatment group). (C) PC-3 cells were incubated with 10 μM compound k/senexin A for 1 h, subsequently treated with TGF-β1 (10 ng/mL) for 24 h and incubated with the indicated antibodies and DAPI. The immunofluorescence images were photographed by a ZEISS ApoTome.2 microscope. Images were taken at 600× magnification.

[2] = molecular target: CDK8 (Homo sapiens (Human), UniProt P49336); assay: LanthaScreen Eu Binding Assay, Thermo Fisher SelectScreen kinase service
Chain of CDK8 (P49336 whole entry, looked up): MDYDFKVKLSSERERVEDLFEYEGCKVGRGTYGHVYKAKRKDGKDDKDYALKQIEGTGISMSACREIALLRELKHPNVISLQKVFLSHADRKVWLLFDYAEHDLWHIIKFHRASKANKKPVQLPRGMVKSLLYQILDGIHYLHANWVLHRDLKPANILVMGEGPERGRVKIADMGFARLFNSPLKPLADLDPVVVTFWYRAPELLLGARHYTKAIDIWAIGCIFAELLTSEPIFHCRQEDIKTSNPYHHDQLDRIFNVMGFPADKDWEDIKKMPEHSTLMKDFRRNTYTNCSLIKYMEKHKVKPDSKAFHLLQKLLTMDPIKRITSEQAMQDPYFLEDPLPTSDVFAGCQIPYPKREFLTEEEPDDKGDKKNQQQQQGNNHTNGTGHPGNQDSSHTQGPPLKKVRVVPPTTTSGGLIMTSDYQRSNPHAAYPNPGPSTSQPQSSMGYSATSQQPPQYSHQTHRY
Chain of CDK8 (P24863 whole entry partner, looked up): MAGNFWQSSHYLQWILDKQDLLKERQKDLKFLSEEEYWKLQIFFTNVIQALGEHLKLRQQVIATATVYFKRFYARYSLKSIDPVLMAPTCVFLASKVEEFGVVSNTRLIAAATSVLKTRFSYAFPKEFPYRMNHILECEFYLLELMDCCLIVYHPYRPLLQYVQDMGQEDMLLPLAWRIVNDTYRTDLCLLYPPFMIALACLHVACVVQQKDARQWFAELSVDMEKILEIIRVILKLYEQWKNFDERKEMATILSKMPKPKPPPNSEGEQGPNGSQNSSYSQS
Experimental: (§1) Compounds were tested for kinase inhibitory activity using the Thermo Fisher SelectScreen service (www.thermofisher.com/selectscreen). For CDK8, the LanthaScreen Eu Binding Assay was used. Briefly, the assay employed utilizes a fluorescent tracer to a given kinase. This is used to detect the addition of an anti-tag antibody. When the tracer and antibody bind to the targeted kinase, the Forster resonance energy transfer is measured. When a kinase inhibitor is added to the assay, the tracer/kinase binding will be disrupted, producing low FRET detection and indicating kinase inhibitory activity. Evaluation of kinase activity of additional kinase targets utilized the LanthaScreen binding assay or the Z′-Lyte activity assay provided by Thermo Fisher SelectScreen service. The IC50 values were determined using sequential doses, and the inhibition curves were provided by Thermo Fisher Scientific.
The fragment-based drug design strategy in this study led to optimized CDK8 inhibitors with promising results. CDK8-inhibitory activities of the compounds (a-n) designed by this fragment-based drug design strategy were tested using the SelectScreen kinase service of ThermoFisher Scientific. The inhibitory effects of the 14 compounds and the referenced compound were tested at a concentration of 10 μM.

[3] = system: A549 cells; assay: TGF-β1-induced EMT protein expression, western blot; format: cell-based, human; conditions: test compounds 2 μM, senexin A 5 μM, pirfenidone 1 mM; TGF-β1 10 ng/mL
Experimental: (§2) FIGS. 4A-4B show the inhibition of epithelial-to-mesenchymal transition protein expressions by CDK8 inhibitors in human alveolar epithelial cells. […] Cell lysates were subjected to a Western blot analysis using the indicated antibodies. Results are shown as the mean t SEM from three independent experiments. *p<0.05, and ***p<0.001 compared to the control group; #p<0.05, ##p<0.01, and ###p<0.001 compared to the TGF-β1-treated group. […] Cell viabilities were determined by an MTT assay. Results are shown as the mean t SEM of three independent experiments.
Cells (106) were incubated for 10 min at 4° C. in lysis buffer (20 mM HEPES at pH 7.4, 2 mM EGTA, 50 mM β-glycerophosphate, 0.1% Triton X-100, 10% glycerol, 1 mM DTT, 1 μg/mL of leupeptin, 5 μg/mL of aprotinin, 1 mM phenylmethylsulfonyl fluoride, and 1 mM sodium orthovanadate), scraped off, incubated on ice for an additional 10 min, and centrifuged at 17,000 g for 30 min at 4° C. Protein samples (20 μg) were then electrophoresed on SDS-polyacrylamide gel electrophoresis (PAGE) gels and transferred to a nitrocellulose membrane, which was then blocked by incubation for 30 min at room temperature with 5% bovine serum albumin (BSA) in Tris-buffered saline with 0.1% Tween-20 (TBST). Immunoblotting was performed by overnight incubation at 4° C. with primary antibodies in TBST, followed by incubation for 1 h at room temperature with horseradish peroxidase (HRP)-conjugated secondary antibodies. Bound antibodies were measured using enhanced chemiluminescence (ECL) reagent (GE Healthcare, UK) and exposed to photographic film.

[4] = molecular target: CDK19 (Homo sapiens (Human), UniProt Q9BWU1); assay: Kinase selectivity panel of 54 kinases (SelectScreen); format: biochemical; conditions: 150 nM, 54-kinase panel
Chain of CDK19 (Q9BWU1 whole entry): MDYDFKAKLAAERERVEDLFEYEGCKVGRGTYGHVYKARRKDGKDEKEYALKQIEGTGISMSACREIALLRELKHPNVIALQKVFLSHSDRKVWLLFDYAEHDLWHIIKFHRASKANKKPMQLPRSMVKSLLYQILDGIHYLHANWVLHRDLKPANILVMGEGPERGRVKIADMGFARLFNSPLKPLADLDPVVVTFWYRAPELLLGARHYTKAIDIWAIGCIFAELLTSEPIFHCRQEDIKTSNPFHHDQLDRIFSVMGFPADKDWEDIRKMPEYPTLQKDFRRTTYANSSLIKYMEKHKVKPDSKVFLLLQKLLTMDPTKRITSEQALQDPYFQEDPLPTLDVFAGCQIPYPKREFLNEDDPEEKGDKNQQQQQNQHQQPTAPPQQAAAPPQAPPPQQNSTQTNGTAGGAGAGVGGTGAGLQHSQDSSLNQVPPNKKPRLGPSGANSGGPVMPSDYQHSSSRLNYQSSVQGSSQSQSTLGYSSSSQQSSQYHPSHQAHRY
Experimental: as §1
Compound k was evaluated for kinase selectivity. […] The cytotoxicity of compound k was then assessed in DU145 and PC-3 cells, human prostate cancer cell lines isolated from patients with brain and bone metastasis, respectively. […] To further examine whether compound k still inhibited CDK8/19 inhibition in cells, we assessed whether compound treatment in DU145/PC-3 androgen-independent prostate cancer cells could inhibit STAT1-S727 phosphorylation. […]

[5] = system: A549 cells; assay: MTT cell viability assay; format: cell-based, human; conditions: 12, 24 and 48 h, up to 10 μM
Experimental: as §2
Cell cytotoxicity was measured by a colorimetric MTT assay. […] After various treatments, 1 mg/mL of MTT was added, and the plates were incubated at 37° C. for an additional 2 h. Then cells were pelleted and lysed with 10% sodium dodecylsulfate (SDS) with 0.01 M HCl, and the absorbance at 570 nm was measured on a microplate reader.

[6] = system: PC-3 cells; assay: β-catenin target protein expression, western blot; format: cell-based, human; conditions: 24 h
Experimental: Inhibitory phosphorylation of GSK3β was evaluated through western blotting. […] Whole-cell lysates were subjected to western blotting with the indicated antibodies. FIGS. 11J-11K show the comparison of basal activities of the Akt/GSK3β axis between PC-3 and DU145 cells. […] The results are shown as the mean±SEM from at least three independent experiments (*p<0.05, **p<0.01, ***p<0.001 vs. control group; #p<0.05, ##p<0.01, and ###p<0.001 vs. relevant control).
The cells were incubated in lysis buffer for 10 min at 4° C., scraped off, incubated on ice for an additional 10 min and then centrifuged at 17,000 g for 30 min at 4° C. Protein samples were electrophoresed on SDS-PAGE gels, transferred to PVDF membranes and blocked with 5% fat-free milk in PBS for 30 min at room temperature. Immunoblotting was performed overnight with primary antibodies in PBS at 4° C., followed by incubation with HRP-conjugated secondary antibodies for 1 h at room temperature. Bound antibodies will be measured using an ECL reagent and exposed to a photographic film. In the immunoprecipitation assay, cell lysates were immunoprecipitated with 1 μg of antibody and A/G agarose beads overnight at 4° C. After washing the precipitated beads three times with 1 mL ice-cold cell lysis buffer, bound immune complexes were separated by 10% SDS-PAGE and analyzed with immunoblotting.

CNC(=O)c1cc(Oc2ccc(NS(=O)(=O)c3ccc4c(c3)C(=C(C)C)C(=O)N4)c(F)c2)ccn1 [Compound k, 4-(3-Fluoro-4-((2-oxo-3-(propan-2-ylidene)indoline)-5-sulfonamido)phenoxy)-N-methylpicolinamide]
TGF-β1-induced migration (wound closure) ([1]; 2.5 and 10 μM, 48 h): significantly inhibited
TGF-β1-induced morphological transition ([1]; 24 h): appeared to reverse these effects
CDK8 inhibition percentage ([2]; 150 nM, 54-kinase panel): 64%
CDK8 Inhibition percentage at 10 μM ([2]; 10 μM): 102%
IC50 ([2]; read-out: Inhibition of CDK8 IC50): 0.129 µM
higher inhibitory potency compared to compound j ([2]; vs compound j): ~1.5 fold
increase in CDK8 inhibitory activity compared to E966-0530 ([2]; vs original compound E966-0530): 13 fold
TGF-β1-triggered EMT protein expressions [3]: significant inhibition
CDK19 inhibition percentage [4]: 40%
cell viability [5]: did not significantly change
Snail expression [6]: markedly inhibited
